Test results reported in US20150057180A1, “Methods and Kits for Analyzing Biomarkers in a Signal Transduction Pathway” (BioScale, Inc., priority 2012, published 2015).
Entries after “also recorded” stand apart in the source; their conditions may differ.

Columns and labels:
pERK1/2 [1] = assay: AMMP pERK1/2 assay, MCF-7 cells; conditions: for EGF stimulated phosphorylation of ERK1/2: inhibitor (Afatinib 13 nM, Gefitinib 37 nM or Neratinib 92 nM) 2 hours prior to EGF 100 ng/ml 10 minutes
Text: (§1) AMMP Assay Design: These studies were designed using AMMP® (Acoustic Membrane Microparticle Assay) as run on the ViBE® workstation (BioScale). Assays were constructed so that strepavidin coated magnetic microparticles were loaded with analyte-specific biotinylated antibody and the solution phase sandwich partner antibody was conjugated with fluorescein. The complex of bead-analyte and fluorescien-labeled antibody was detected by the anti-fluorescein antibody-coated acoustic membrane of the VIBE.
(§2) Assay Set-Up: Cell lysates were thawed on ice then centrifuged at 14,000 RPM. Forty microliters of diluted cell lysates were pipetted in to the appropriate well of each plate with forty microliters of sample diluent. Also to each well, a total of forty microliters of a mixture of 1.5×10^5 magnetic beads and 200 ng/ml of fluorescein labeled detector antibody were added. Separate wells were loaded with beads and lysates alone to serve as negative controls. The plates were loaded on the VIBE workstation (BioScale Inc., Lexington, Mass.) and incubated for 4 hours prior to analysis.

pp38 [2] = assay: AMMP pp38 assay, A431 cells
Method: (§3) TPER was supplemented with phosphatase and protease inhibitors (ThermoFisher/Pierce) as described by the manufacturer. The cells were lysed by pipetting the TPER on the adhesion cell layer, or onto the cell pellet in the case of Jurkat cells. Cell lysates were collected into conical tubes, placed on ice, and vortexed every 5 minutes for a total of 20 minutes before aliquoting and freezing on dry ice. A standard BCA protein assay was used to determine total protein concentration of the lysates.
as §1
(§4) Assay Set-Up: Cell lysates were thawed on ice then centrifuged at 14,000 RPM. Forty microliters of diluted cell lysates were pipetted in to the appropriate well of each plate with forty microliters of sample diluent. Also to each well, a total of forty microliters of a mixture of 1.5×10^5 magnetic beads and 200 ng/ml of fluorescein labeled detector antibody were added. […]

pJNK [3] = assay: AMMP pJNK assay, A431 cells
Method: as §3, §1, §2

pHER3 [4] = assay: AMMP pHER3 assay, A431 cells; conditions: for EGF stimulated phosphorylation of HER3: inhibitor (Afatinib 13 nM, Gefitinib 37 nM or Neratinib 92 nM) 2 hours prior to EGF 100 ng/ml 10 minutes
Text: as §1, §2

pMEK1 [5] = assay: AMMP pMEK1 assay, A431 cells
Text: as §1, §2

pAKT1 [6] = assay: AMMP pAKT1 assay, A431 cells; conditions: inhibitor (Neratinib 92 nM) 2 hours prior to EGF 100 ng/ml 10 minutes
Method: as §3, §1, §4

pp38 [7] = assay: AMMP pp38 assay, MCF-7 cells
Method: as §3, §1, §4

pHER3 [8] = assay: AMMP pHER3 assay, MCF-7 cells
Method: as §3, §1, §2

pMEK1 [9] = assay: AMMP pMEK1 assay, MCF-7 cells
Text: as §1, §2

pAKT1 [10] = assay: AMMP pAKT1 assay, MCF-7 cells
Method: as §3, §1, §4

pERK1/2 [11] = assay: AMMP pERK1/2 assay, A431 cells
Text: as §1, §2

pJNK [12] = assay: AMMP pJNK assay, MCF-7 cells; type: cell-based, human; conditions: EGF 100 ng/ml for 10 minutes vs no treatment
Method: as §3, §1, §4

phosphorylated p38 = assay: AMMP phospho-p38 assay, A431 cell lysates (Example 5); type: cell-based, human; conditions: EGF-stimulated A431 cells compared to unstimulated A431 cells (FIG. 38)
Method: For the sample preparation from A431 cells, the following methods were used. Human epidermoid carcinoma cells A431 (American Type Culture Collection (ATCC), Manassas, Va.; ATCC Catalog No. CRL-1555) were grown to approximately 80% confluence in T75 flasks according to standard cell culture techniques. […] Negative control cells were incubated with serum free medium without stimulant, also for 10 minutes.
Additional scraping was required to release the cells from the plastic. The resulting cell suspension was incubated for approximately 15 minutes on ice with vortexing every five minutes for effective cell lysis. Phosphatase and protease inhibitors (HALT, Thermo Fisher (Pierce)) were included in the detergent cell treatment preparation. Cell lysates were aliquoted and snap frozen on dry ice, and then transferred to a −80° C. freezer until analysis. […]
Cell lysate samples were prepared for the assays by thawing them on ice then clarifying by centrifugation in a microcentrifuge at 14,000 RPM for 10 minutes. […] Negative controls containing the bead only with the samples (no fluoresceinated antibody) were run and the ViBE response was subtracted from the sample signal readings to determine the specific assay signal.

[13] = inhibitor (Neratinib 92 nM) 2 hours prior to EGF 100 ng/ml 10 minutes
[14] = inhibitor (Afatinib 13 nM, Gefitinib 37 nM or Neratinib 92 nM) 2 hours prior to EGF 100 ng/ml 10 minutes, listed as neratinib
[15] = EGF 100 ng/ml for 10 minutes vs no treatment

Molecule: COc1cc2ncnc(Nc3ccc(F)c(Cl)c3)c2cc1OCCCN1CCOCC1 [gefitinib, Gefitinib]
- EGF stimulated phosphorylation of ERK1/2 (pERK1/2 [1]): inhibited

Molecule: CCOc1cc2ncc(C#N)c(Nc3ccc(OCc4ccccn4)c(Cl)c3)c2cc1NC(=O)/C=C/CN(C)C [Neratinib]
- EGF stimulated phosphorylation of p38 (pp38 [2]; inhibitor (Afatinib 13 nM, Gefitinib 37 nM or Neratinib 92 nM) 2 hours prior to EGF 100 ng/ml 10 minutes): largely unaffected
- EGF stimulated phosphorylation of JNK (pJNK [3]; [13]): largely unaffected
- EGF stimulated phosphorylation of HER3 (pHER3 [4]): largely inhibit
- EGF stimulated phosphorylation of HER3 (pHER3 [4]; listed as neratinib): highly effective
- EGF stimulated phosphorylation of MEK1 (pMEK1 [5]; [14]): no such effect; also recorded: much less than expected
- EGF stimulated phosphorylation of AKT1 (pAKT1 [6]): largely unaffected
- EGF stimulated phosphorylation of p38 (pp38 [7]; [13]): slight loss in phosphorylation
- EGF stimulated phosphorylation of HER3 (pHER3 [8]; [13]): only partially inhibited
- EGF stimulated phosphorylation of MEK1 (pMEK1 [9]; [13]): inhibitory effects; also recorded: partially inhibited
- EGF stimulated phosphorylation of AKT1 (pAKT1 [10]; [13]): slight loss in phosphorylation
- EGF stimulated phosphorylation of ERK1/2 (pERK1/2 [11]; [14]): no such effect; also recorded: much less than expected
- EGF stimulated phosphorylation of ERK1/2 (pERK1/2 [1]): inhibitory effects

Molecule: epidermal growth factor [EGF]
- phosphorylation of JNK on EGF stimulation (pJNK [12]): no change in JNK; also recorded: No phosphorylation of JNK
- amount of phospho-p38 (phosphorylated p38): dramatic increase
- phosphorylation of p38 on EGF stimulation (pp38 [2]; [15]): led to phosphorylation
- phosphorylation of JNK on EGF stimulation (pJNK [3]; [15]): no change in JNK; also recorded: No phosphorylation of JNK
- phosphorylation of HER3 on EGF stimulation (pHER3 [4]; [15]): increased with EGF stimulation; also recorded: high even in non-treated A431 cells
- phosphorylation of MEK1 on EGF stimulation (pMEK1 [5]; [15]): Strong phosphorylation of MEK1; also recorded: led to phosphorylation
- phosphorylation of p38 on EGF stimulation (pp38 [7]; [15]): moderate phosphorylation of p38
- phosphorylation of HER3 on EGF stimulation (pHER3 [8]; [15]): little phosphorylation was observed; also recorded: resulted in phosphorylation
- phosphorylation of MEK1 on EGF stimulation (pMEK1 [9]; [15]): modest phosphorylation of MEK1; also recorded: resulted in phosphorylation
- phosphorylation of AKT1 on EGF stimulation (pAKT1 [10]; [15]): small amount of AKT1 phosphorylation
- phosphorylation of ERK1/2 on EGF stimulation (pERK1/2 [11]; [15]): predominated the signaling pathway; also recorded: easily detected; also recorded: led to phosphorylation
- phosphorylation of ERK1/2 on EGF stimulation (pERK1/2 [1]; [15]): detected phosphorylation of ERK1/2; also recorded: detected to a lesser degree; also recorded: resulted in phosphorylation
